This experiment deals with CD2F1 mice, L1210 leukemia ip, survival T/C. Nature of the experiment: NCI In Vivo Anticancer Drug Screen. Data for tumor model L1210 Leukemia (intraperitoneal) in CD2F1 (CDF1) mice. The settings on record: endpoint: mean survival time, vehicle: saline, higher = longer survival. The method, boiled down: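 Transplantable tumor in mice; compound-treated vs vehicle-treated groups. Read-out = treated/control ratio of the measured endpoint.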

Toxic doses and inconclusive results are not listed.

For the compound `C1OC1CN1CCN(CC2CO2)CC1` (configuration not stated), the T/C is 105 % of control (dose: 2.0 mg/kg/injection, schedule: Q03HX008 (ip)); 98 % of control (dose: 2.0 mg/kg/injection, schedule: Q03HX016 (ip)); 108 % of control (dose: 2.0 mg/kg/injection, schedule: Q03HX024 (ip)); 108 % of control (dose: 4.0 mg/kg/injection, schedule: Q03HX008 (ip)); 100 % of control (dose: 4.0 mg/kg/injection, schedule: Q03HX016 (ip)); 121 % of control (dose: 4.0 mg/kg/injection, schedule: Q03HX024 (ip)). Further, the T/C (dose: 8.0 mg/kg/injection, schedule: Q01DX009 (ip)) is 121 % of control; the T/C (dose: 8.0 mg/kg/injection, schedule: Q01DX009 (sc)) was 108 % of control; the T/C (dose: 16.0 mg/kg/injection, schedule: Q01DX001 (ip)) was 113 % of control; the T/C (dose: 16.0 mg/kg/injection, schedule: Q01DX001 (sc)) is 105 % of control; the T/C (dose: 16.0 mg/kg/injection, schedule: Q04DX003 (ip)) was 120 % of control; the T/C (dose: 16.0 mg/kg/injection, schedule: Q08DX002 (ip)) is 103 % of control. Moreover, the T/C runs as follows: (dose: 32.0 mg/kg/injection, schedule: Q01DX001 (sc)) 108 % of control; (dose: 32.0 mg/kg/injection, schedule: Q01DX009 (ip)) 194 % of control; (dose: 32.0 mg/kg/injection, schedule: Q08DX002 (ip)) 120 % of control; (dose: 64.0 mg/kg/injection, schedule: Q01DX001 (ip)) 152 % of control; (dose: 64.0 mg/kg/injection, schedule: Q01DX001 (sc)) 122 % of control; (dose: 64.0 mg/kg/injection, schedule: Q01DX009 (ip)) 92 % of control. For the same compound, the T/C (dose: 64.0 mg/kg/injection, schedule: Q01DX009 (sc)) was 88 % of control; the T/C (dose: 64.0 mg/kg/injection, schedule: Q04DX003 (ip)) was 175 % of control; the T/C (dose: 64.0 mg/kg/injection, schedule: Q08DX002 (ip)) was 156 % of control; the T/C (dose: 128.0 mg/kg/injection, schedule: Q01DX001 (ip)) was 201 % of control; the T/C (dose: 128.0 mg/kg/injection, schedule: Q04DX003 (ip)) is 88 % of control; the T/C (dose: 128.0 mg/kg/injection, schedule: Q08DX002 (ip)) was 190 % of control.

Take `COC(=O)C(C)S(=O)(=O)O` (configuration not stated): the T/C reads like this: (dose: 100.0 mg/kg/injection, schedule: Q04DX002 (ip)) 106 % of control; (dose: 200.0 mg/kg/injection, schedule: Q04DX002 (ip)) 106 % of control; (dose: 400.0 mg/kg/injection, schedule: Q04DX002 (ip)) 95 % of control.

The values above are taken from PubChem BioAssay AID256 (DTP/NCI, 2004).
